Source: article PMC10015785, “A proteasomal β5 subunit of Haemonchus contortus with a role in the growth, development and life span” (Parasites & Vectors, 2023)

Target: T1, proteasomal β5 subunit (Hc-PBS-5) (Haemonchus contortus, UniProt A0A7I5E5W5)
T1 sequence (A0A7I5E5W5 65-284): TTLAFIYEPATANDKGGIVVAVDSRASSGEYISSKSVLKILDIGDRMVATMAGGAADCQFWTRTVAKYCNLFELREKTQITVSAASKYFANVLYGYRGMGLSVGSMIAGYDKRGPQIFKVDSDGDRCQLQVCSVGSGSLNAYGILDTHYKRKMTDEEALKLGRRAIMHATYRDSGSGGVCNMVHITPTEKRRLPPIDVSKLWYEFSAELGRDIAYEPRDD
Assay type: biochemical

For CC(C)C[C@H](NC(=O)[C@H](Cc1ccccc1)NC(=O)c1cnccn1)B(O)O [bortezomib], the IC50 was 622 nM.
